In patent US20200369626A1 (Washington University, priority 2019, published 2020):
Several values for one entry are separate records, joined by “and”; a condition that tells them apart may be missing. Identical values can stand only once.

Key:
S1PR2 = molecular target: T1, S1PR2 (Homo sapiens, UniProt O95136); test: competitive [^32P]S1P binding assay on cell membranes, S1PR2; settings: read-out: [^32P]S1P competition assay IC50; S1PR2, radioligand [^32P]S1P
T1 construct: purchased

[1] = molecular target: T2, Human recombinant sphingosine-1-phosphate receptor 2 (Homo sapiens, UniProt O95136); test: competitive binding assay using [^125I]34 as radioligand; settings: S1PR2, radioligand [^125I]34; read-out: [^125I]34 competition assay IC50
Experimental: Then, 50 μL of different concentrations (0.01, 0.05, 0.1, 0.5, 1.0, 5.0, 10.0, 50.0, 100, 500, 1000 nM) of each ligand and 50 μL of [^125]34 (6.0 nM) was added to each well. The mixture was incubated for 1 h on a shaker at room temperature and then transferred onto a 96-well glass fiber filtration plates. The unbound activity was filtered and rapidly washed using ice-cold assay buffer (5×200 μL/well). After drying under reduced pressure, the filter bound radionuclide was measured by a Beckman 8000 automated gamma counter. The binding potency (IC50) was calculated using GraphPad Prism.

[2] = molecular target: T3, sphingosine-1-phosphate receptor 2 in kidney sections (Rattus norvegicus, UniProt P47752); test: in vitro autoradiography of [^125I]34 on rat kidney sections; type: binding, Sprague Dawley rats
T3 construct: from tissue; host or cells: kidney of male Sprague Dawley rats (control and STZ-induced diabetic)
Experimental: To check that changes of S1PR2 expression can be detected using [^125I]34 in the STZ induced diabetes rats, in vitro autoradiography studies of [^125]34 were performed.
Male Sprague Dawley (SD) rats (8 weeks old,) received streptozotocin (STZ) via tail vein injections at a dose of 55 mg/kg in 50 mM sodium citrate buffer 12 weeks prior to euthanasia and tissue harvesting. Body weight and blood glucose levels were measured weekly in control and treated animals, where elevated blood glucose was indicative of chronic diabetes (see FIG. 5a). After 12 weeks, the rats were euthanized and one kidney was removed, snap-frozen, and sectioned (14 microns) with a Leica cryostat.
The autoradiography experiment was performed by incubating frozen cross sections of rat kidney tissue and 1.85 KBq/slide of [^125I]34 in 500 μL of binding buffer (50 mM HEPES-Na pH 7.5, 5 mM MgCl2, and 1 mM CaCl2, 0.5% fatty acid-free bovine serum albumin) to check the uptake of the radioactivity. Blocking studies of radiotracer were performed by incubating the above solution with 10 μM of JTE-013, a S1PR2 specific inhibitor. After incubation for 60 minutes at room temperature, the kidney sections were washed 2 minutes each using the following buffers sequentially: 1×TBST, 15% ethanol in 1×TBST, 30% ethanol in 1×TBST, 1×TBST (1×TBST buffer: 20 mM of Tris, 150 mM of NaCl, 0.1% of Tween 20). Then, the section slides were placed into a cassette and exposed to a phosphor sensor sheet for 24 hours. Autoradiography signal was visualized by phosphor-imaging of FLA7000. Autoradiography signal on the renal tissues (cortex and medulla, not including the renal papilla) was measured and quantified with Multi Gouge program. The data was background-corrected and expressed as photo-stimulated luminescence signals per square millimeter (PSL/mm^2) as shown in FIG. 5B. For statistical comparison, the student t-test (unpaired) was applied using MS Excel and p<0.05 was considered statistically significant (see FIG. 5C.)

[3] = molecular target: T2, Human recombinant sphingosine-1-phosphate receptor 2; test: biochemical; type: binding
Experimental: Then, a 50 μL aliquot of increasing concentrations of [^125I]34 (0.2, 0.5, 1.0, 2.0, 4.0, 6.0, 8.0, 10.0, 16.0, and 20.0 nM) was added to each well; each concentration of [^125I]34 was calculated from the radioactivity and specific activity. […] The mixture was incubated at room temperature for 1 h on a shaker and then transferred onto 96-well glass fiber filtration plates. The unbound activity was filtered and rapidly washed away using 200 μL/well of ice-cold assay buffer for 5 times. After drying under the vacuum, the filter bound radionuclide was measured by a Beckman 8000 automated gamma counter. Data analysis was accomplished using GraphPad Prism (GraphPadSoftware, Inc., San Diego, Calif.). The specific binding was calculated by subtracting the non-specific binding from the total binding. The binding assay data were curve-fit to a one-site binding equation to generate the dissociation constant (Kd) of the [^125I]34.

[4] = ex vivo biodistribution study of [^125I]34 in Wistar rats
Experimental: A pilot biodistribution study was carried out in a small number of rats at early time points post-injection in order to minimize the amount of mixed (radioactive and biological) waste generated by in vivo work. […] Control and streptozotocin-treated Wistar rats were used 10 days after treatment for the preliminary pilot acute ex vivo biodistribution study described below.
As described above, adult male Wistar rats from Charles River were used for a pilot study to evaluate the distribution of [^125I]34 in normal rats at 5 and 30 min post injection and in acute streptozotocin-induced diabetic rats 30 min post-injection (n=4 for each group). The acute streptozotocin-induced diabetic rats were treated 10 days before the study as described above. […] The concentrated solution of [^125I]34 was diluted to ˜0.037 MBq/100 μL which was formulated for injection in 10% ethanol in 5% polyoxyethylated 12-hydroxystearic acid (Kolliphor® HS 15, Millipore Sigma, Billerica, Mass.) and normal saline solution, in order to ensure that the radioactivity was solubilized. Rats were injected via the lateral tail vein under 2-3% isoflurane/oxygen anesthesia, then allowed to recover until euthanized under isoflurane/oxygen anesthesia at the appropriate time point post-injection. Tissues including blood, heart, lung, liver, kidney, muscle, fat, pancreas, spleen, kidney, liver, thyroid, thymus, brain, and small intestines were collected, weighed, and counted in a Beckman Gamma 8000 counter, and counts were corrected for background and decay corrected. Tracer uptake in tissues and organs was calculated as percent injected dose per gram of tissue (% ID/g).

T3 sequence (P47752 whole entry): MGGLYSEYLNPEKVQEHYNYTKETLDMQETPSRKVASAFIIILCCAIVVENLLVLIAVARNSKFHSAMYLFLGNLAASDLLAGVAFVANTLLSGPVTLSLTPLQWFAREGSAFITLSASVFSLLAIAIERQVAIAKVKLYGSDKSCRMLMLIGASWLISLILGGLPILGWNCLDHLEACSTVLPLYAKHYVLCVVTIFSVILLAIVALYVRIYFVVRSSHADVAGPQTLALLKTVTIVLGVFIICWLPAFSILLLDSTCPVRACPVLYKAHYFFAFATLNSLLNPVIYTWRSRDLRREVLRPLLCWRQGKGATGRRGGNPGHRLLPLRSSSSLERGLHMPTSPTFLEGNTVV
T2 sequence (O95136 whole entry): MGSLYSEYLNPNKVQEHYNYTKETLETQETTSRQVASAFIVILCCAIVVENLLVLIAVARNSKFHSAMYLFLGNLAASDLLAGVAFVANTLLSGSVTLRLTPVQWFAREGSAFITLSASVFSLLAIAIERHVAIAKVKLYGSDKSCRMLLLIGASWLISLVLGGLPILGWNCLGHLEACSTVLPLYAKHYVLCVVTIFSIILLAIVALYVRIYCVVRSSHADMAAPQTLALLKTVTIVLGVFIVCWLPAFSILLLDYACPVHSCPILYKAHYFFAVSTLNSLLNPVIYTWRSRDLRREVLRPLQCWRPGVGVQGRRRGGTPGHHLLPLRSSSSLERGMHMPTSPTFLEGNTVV
T1 sequence (O95136 whole entry): as above

`COc1ccc(NC(=O)Cn2c(=O)c3ccccc3n(CC(=O)Nc3cc(I)c(OC)cc3OC)c2=O)cc1` [Compound 34, N-(5-iodo-2,4-dimethoxyphenyl)-2-(3-(2-((4-methoxyphenyl)amino)-2-oxoethyl)-2,4-dioxo-3,4-dihydroquinazolin-1(2H)-yl)acetamide] showed an IC50 (S1PR2) of 2.8 nM and an IC50 [1] of 4.4 ± 0.2 nM.

With `COc1ccc(NC(=O)Cn2c(=O)c3ccccc3n(CC(=O)Nc3cc([125I])c(OC)cc3OC)c2=O)cc1` [[^125I]34] the “blocking of binding to kidney tissue” value ([2]; 10 μM of JTE-013, both groups) was “could be blocked”, the “kidney radioactivity (autoradiography signal)” value ([2]; chronic diabetic (STZ) rats, n=5) was 103.5 PSL/mm^2 and the “increase of binding to kidney of diabetic rats compared to control rats” value ([2]; chronic diabetic vs control) was 44%. The “kidney radioactivity (autoradiography signal)” value ([2]; control rats, n=4) was 72.0 PSL/mm^2, the Kd [3] was 4.31 ± 0.39 nM and the “Uptake Blood” value ([4]; 5 min control) was 0.19 % ID/g and 0.19 ± 0.05 % ID/g. For the same molecule, the “Uptake Blood” value ([4]; 30 min acute diabetic) was 0.08 ± 0.05 % ID/g, the “Uptake Blood” value ([4]; 30 min control) was 0.08 ± 0.02 % ID/g and the “Uptake Brain” value ([4]; 5 min control) was 0.01 % ID/g and 0.01 ± 0.00 % ID/g. The “Uptake Brain” value ([4]; 30 min acute diabetic) was 0.01 ± 0.00 % ID/g, the “Uptake Brain” value ([4]; 30 min control) was 0.01 ± 0.00 % ID/g and the “Uptake Fat” value ([4]; 5 min control) was 0.07 ± 0.02 % ID/g. The “Uptake Fat” value ([4]; 30 min acute diabetic) was 0.11 ± 0.04 % ID/g, the “Uptake Fat” value ([4]; 30 min control) was 0.09 ± 0.01 % ID/g and the “Uptake Heart” value ([4]; 5 min control) was 0.39 % ID/g and 0.39 ± .08 % ID/g. For the same molecule, the “Uptake Heart” value ([4]; 30 min acute diabetic) was 0.12 ± 0.06 % ID/g, the “Uptake Heart” value ([4]; 30 min control) was 0.14 ± 0.02 % ID/g and the “Uptake Kidney” value ([4]; 5 min control) was 0.58 % ID/g and 0.58 ± 0.02 % ID/g. For the same molecule, the “Uptake Kidney” value ([4]; 30 min acute diabetic) was 0.15 ± 0.06 % ID/g, the “Uptake Kidney” value ([4]; 30 min control) was 0.15 ± 0.02 % ID/g and the “Uptake Liver” value ([4]; 5 min control) was 2.20 % ID/g and 2.20 ± 0.32 % ID/g. For the same molecule, the “Uptake Liver” value ([4]; 30 min acute diabetic) was 0.36 ± 0.14 % ID/g, the “Uptake Liver” value ([4]; 30 min control) was 0.36 ± 0.07 % ID/g and the “Uptake Lung” value ([4]; 5 min control) was 0.64 % ID/g and 0.64 ± 0.01 % ID/g. For the same molecule, the “Uptake Lung” value ([4]; 30 min acute diabetic) was 0.20 ± 0.09 % ID/g, the “Uptake Lung” value ([4]; 30 min control) was 0.22 ± 0.04 % ID/g and the “Uptake Muscle” value ([4]; 5 min control) was 0.12 ± 0.01 % ID/g. For the same molecule, the “Uptake Muscle” value ([4]; 30 min acute diabetic) was 0.06 ± 0.02 % ID/g, the “Uptake Muscle” value ([4]; 30 min control) was 0.08 ± 0.01 % ID/g and the “Uptake Pancreas” value ([4]; 5 min control) was 0.40 ± 0.04 % ID/g. For the same molecule, the “Uptake Pancreas” value ([4]; 30 min acute diabetic) was 0.12 ± 0.04 % ID/g, the “Uptake Pancreas” value ([4]; 30 min control) was 0.14 ± 0.01 % ID/g and the “Uptake Small intestines” value ([4]; 5 min control) was 1.09 ± 0.23 % ID/g. For the same molecule, the “Uptake Small intestines” value ([4]; 30 min acute diabetic) was 2.59 ± 0.58 % ID/g, the “Uptake Small intestines” value ([4]; 30 min control) was 5.32 ± 0.27 % ID/g and the “Uptake Spleen” value ([4]; 5 min control) was 0.29 ± 0.06 % ID/g. For the same molecule, the “Uptake Spleen” value ([4]; 30 min acute diabetic) was 0.05 ± 0.02 % ID/g, the “Uptake Spleen” value ([4]; 30 min control) was 0.06 ± 0.01 % ID/g and the “Uptake Thymus” value ([4]; 5 min control) was 0.10 ± 0.01 % ID/g. For the same molecule, the “Uptake Thymus” value ([4]; 30 min acute diabetic) was 0.08 ± 0.03 % ID/g, the “Uptake Thymus” value ([4]; 30 min control) was 0.10 ± 0.02 % ID/g and the “Uptake Thyroid” value ([4]; 5 min control) was 0.32 ± 0.11 % ID/g. The “Uptake Thyroid” value ([4]; 30 min acute diabetic) was 0.25 ± 0.06 % ID/g, the “Uptake Thyroid” value ([4]; 30 min control) was 0.53 ± 0.09 % ID/g and the “in vivo metabolic stability” value ([4]; inferred from low activity in the thyroid) was “metabolically stable”. For the same molecule, the “crossing of the blood brain barrier” value ([4]; inferred from very low brain uptake in rats) was “does not cross the blood brain barrier”.
